Source: patent publication US4927565A, “5-substituted amino-4-hydroxy-pentenoic acid derivatives and their use” (Banyu Pharmaceutical Co., Ltd., priority 1986, dated 1990)

What follows are compounds tested against T1, Human plasma renin (Homo sapiens, UniProt P00797) (assay: Human plasma renin inhibiting activities (angiotensin I measured by radio immunoassay)). Details: pH7.4, 37° C., one hour, read-out: 50% inhibition concentration IC50.
T1 construct: from tissue; host or cells: human plasma
T1 sequence (P00797 67-406): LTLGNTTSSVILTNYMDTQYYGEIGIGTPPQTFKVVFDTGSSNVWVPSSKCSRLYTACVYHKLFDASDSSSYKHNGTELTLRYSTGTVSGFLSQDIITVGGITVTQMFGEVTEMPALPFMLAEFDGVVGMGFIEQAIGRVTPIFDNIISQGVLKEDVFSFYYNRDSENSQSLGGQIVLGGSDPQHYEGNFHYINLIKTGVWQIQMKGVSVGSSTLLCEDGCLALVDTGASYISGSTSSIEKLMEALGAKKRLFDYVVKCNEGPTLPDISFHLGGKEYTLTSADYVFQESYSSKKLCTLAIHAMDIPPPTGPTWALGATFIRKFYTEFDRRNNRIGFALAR
Type: biochemical
Procedure: To 156 μl of a 0.2M sodium phosphate buffer solution (pH7.4), 40 μl of a solution mixture of 43 mM 8-hydroxyquinoline and 100 mM disodium ethylenediamine tetraacetate, 4 μl of dimethyl sulfoxide or a dimethyl sulfoxide solution of an inhibitor and 200 μl of human plasma were added and reacted at 37° C. for one hour. Then, pepstatin was added thereto to terminate the reaction, and the amount of the resulting angiotension I was measured by radio immunoassay whereby the inhibiting activity was determined.

IC50 | SMILES
120 nM | CCCC[C@H](NC(=O)[C@H](Cc1cccc2ccccc12)NC(=O)OCc1ccccc1)C(=O)N[C@@H](CC(C)C)[C@@H](O)/C=C(\CCC)C(=O)NCC(C)C [Compound D, (4S,5S)-5-(L-N-benzyloxycarbonylnaphthylalanyl-L-norleucyl)amino-4-hydroxy-2-propyl-7-methyl-2(E)-octenoic acid isobutylamide]
1400 nM | CCCC[C@H](NC(=O)[C@H](Cc1cccc2ccccc12)NC(=O)OCc1ccccc1)C(=O)N[C@@H](CC(C)C)[C@@H](O)/C=C/C(=O)NCC(C)C [Compound A, (4S,5S)-5-(L-N-benzyloxycarbonylnaphthylalanyl-L-norleucyl)amino-4-hydroxy-7-methyl-2(E)-octenoic acid isobutylamide]
67 nM | CCCC[C@H](NC(=O)[C@H](Cc1cccc2ccccc12)NC(=O)OCc1ccccc1)C(=O)N[C@@H](CC(C)C)[C@@H](O)/C=C(/CC)C(=O)NCC(C)C [Compound C, (4S,5S)-5-(L-N-benzyloxycarbonylnaphthylalanyl-L-norleucyl)amino-2-ethyl-4-hydroxy-7-methyl-2(Z)-octenoic acid isobutylamide]
19 nM | CCCC[C@H](NC(=O)[C@H](Cc1cccc2ccccc12)NC(=O)OCc1ccccc1)C(=O)N[C@@H](CC(C)C)[C@@H](O)/C=C(\CC)C(=O)NCC(C)C [Compound B, (4S,5S)-5-(L-N-benzyloxycarbonylnaphthylalanyl-L-norleucyl)amino-4-hydroxy-2-ethyl-7-methyl-2(E)-octenoic acid isobutylamide]
310 nM | CCCC[C@H](NC(=O)[C@H](Cc1cccc2ccccc12)NC(=O)OCc1ccccc1)C(=O)N[C@@H](CC(C)C)[C@@H](O)/C=C(/CCC)C(=O)NCC(C)C [Compound E, (4S,5S)-5-(L-N-benzyloxycarbonylnaphthylalanyl-L-norleucyl)amino-4-hydroxy-2-propyl-7-methyl-2(Z)-octenoic acid isobutylamide]
260 nM | CCCC[C@H](NC(=O)[C@H](Cc1cccc2ccccc12)NC(=O)OCc1ccccc1)C(=O)N[C@@H](CC(C)C)[C@@H](O)/C=C(\C(=O)NCC(C)C)C(C)C [Compound G, (4S,5S)-5-(L-N-benzyloxycarbonylnaphthylalanyl-L-norleucyl)amino-4-hydroxy-2-isopropyl-7-methyl-2(Z)-octenoic acid isobutylamide]
150 nM | CCCC[C@H](NC(=O)[C@H](Cc1cccc2ccccc12)NC(=O)OCc1ccccc1)C(=O)N[C@@H](CC(C)C)[C@@H](O)/C=C(/C(=O)NCC(C)C)C(C)C [Compound F, (4S,5S)-5-(L-N-benzyloxycarbonylnaphthylalanyl-L-norleucyl)amino-4-hydroxy-2-isopropyl-7-methyl-2(E)-octenoic acid isobutylamide]
160 nM | CCCC[C@H](NC(=O)[C@H](Cc1cccc2ccccc12)NC(=O)OCc1ccccc1)C(=O)N[C@@H](CC(C)C)[C@@H](O)/C=C(\CCCO)C(=O)NCC(C)C [Compound H, (4S,5S)-5-(L-N-benzyloxycarbonylnaphthylalanyl-L-norleucyl)-amino-4-hydroxy-2-(3-hydroxypropyl)-7-methyl-2(E)-octenoic acid isobutylamide]
